Patent US4876243A, “Vasopressin compounds” (Smithkline Beckman Corporation, priority 1987, dated 1989)
*1 amine or outer side, *2 acyl side, *3 side chain or, on linkers, in order; H or OH if unused. Where a SMILES comes first, the peptide text is derived from it. Bridges are numbered along the chain shown (N, C = ends). [ ]: non-standard residue; d: D form. X1 = O=C(CC1(S[*:2])CCCCC1)[*:1]; αMeV = CC(C)[C@](C)(N)C(=O)O; Aib = CC(C)(N)C(=O)O

Columns and labels:
V2-vasopressin receptors [1] = molecular target: T1, V2-vasopressin receptors (Sus scrofa, UniProt P32307); experiment: inhibition of adenylate cyclase activation by vasopressin in the medullary tissue of hog kidneys; format: biochemical; conditions: hog kidney medullary tissue, vasopressin-activated adenylate cyclase; read-out: Pig V2 Ki
T1 construct: in the medullary tissue of hog kidneys; from tissue; host or cells: hog kidney medullary tissue
Procedure: (§1) Antagonistic activity at the V2 -vasopressin receptors is determined in a protocol which determines in vitro activity in pig tissue or in vivo diuretic activity in the hydropenic rat (ED300 μg/kg). These procedures are described in the literature. F. Stassen et al., 1st International Conference on Diuretics, Miami, Fla., March (1984).
Antagonistic activity at the V1 -vasopressin receptors is determined in a protocol which measures the reversal of the vasopressin induced contraction of rat thoracic aorta tissue. This is expressed as KB (nM) in the table below. […] V2 -vasopressin antagonism is determined as receptor binding ability measured by inhibition of 3H-LVP binding (KB as nM), by inhibition of adenylate cyclase activation by vasopressin in the medullary tissue of hog kidneys (Ki as nM) or in vivo in the […] rat protocol (ED300 μg/kg). These procedures are described in the literature: F. Stassen et al., J. Pharmacology and Experimental Therapeutics, 223 50 (1982).

V2-vasopressin receptors [2] = molecular target: T1, V2-vasopressin receptors; experiment: receptor binding ability measured by inhibition of 3H-LVP binding; conditions: read-out: Pig V2 KB
Procedure: as §1
(§2) Antagonistic activity at the V1 -vasopressin receptors is determined in a protocol which measures the reversal of the vasopressin induced contraction of rat thoracic aorta tissue. This is expressed as KB (nM) in the table below. Such anti-pressor activity is confirmed in a similar in vitro protocol using the plasma membranes of rat liver. V2 -vasopressin antagonism is determined as receptor binding ability measured by inhibition of 3H-LVP binding (KB as nM), by inhibition of adenylate cyclase activation by vasopressin in the medullary tissue of hog kidneys (Ki as nM) or in vivo in the […] rat protocol (ED300 μg/kg). These procedures are described in the literature: F. Stassen et al., J. Pharmacology and Experimental Therapeutics, 223 50 (1982).

V1-vasopressin receptors = molecular target: T2, V1-vasopressin receptors (Rattus norvegicus, UniProt P30560); experiment: reversal of the vasopressin induced contraction of rat thoracic aorta tissue
T2 construct: vasopressin induced contraction of rat thoracic aorta tissue; from tissue; host or cells: rat thoracic aorta tissue
Procedure: as §2

T2 sequence (P30560 whole entry): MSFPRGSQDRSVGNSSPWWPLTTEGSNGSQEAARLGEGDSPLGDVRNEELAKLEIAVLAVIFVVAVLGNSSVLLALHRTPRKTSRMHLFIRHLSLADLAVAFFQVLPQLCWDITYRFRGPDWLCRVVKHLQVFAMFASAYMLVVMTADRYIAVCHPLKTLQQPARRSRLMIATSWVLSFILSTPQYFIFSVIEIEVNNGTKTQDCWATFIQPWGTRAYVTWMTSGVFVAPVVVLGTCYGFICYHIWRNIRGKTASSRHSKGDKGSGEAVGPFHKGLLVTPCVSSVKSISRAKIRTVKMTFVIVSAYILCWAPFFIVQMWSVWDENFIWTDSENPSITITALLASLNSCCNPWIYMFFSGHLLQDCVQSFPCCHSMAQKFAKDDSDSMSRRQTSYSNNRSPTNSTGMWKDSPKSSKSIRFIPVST
T1 sequence (P32307 whole entry): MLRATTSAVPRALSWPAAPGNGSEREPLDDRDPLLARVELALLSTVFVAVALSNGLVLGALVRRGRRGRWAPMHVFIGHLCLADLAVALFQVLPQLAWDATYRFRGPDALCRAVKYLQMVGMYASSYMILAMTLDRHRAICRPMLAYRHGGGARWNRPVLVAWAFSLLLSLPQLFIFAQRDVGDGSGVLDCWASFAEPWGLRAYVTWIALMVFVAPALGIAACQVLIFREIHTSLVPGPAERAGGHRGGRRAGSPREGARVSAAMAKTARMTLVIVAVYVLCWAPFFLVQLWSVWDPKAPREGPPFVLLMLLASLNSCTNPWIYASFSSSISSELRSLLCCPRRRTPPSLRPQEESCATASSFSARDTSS

Row | Compound | Ki (V2-vasopressin receptors [1]) | Kb (V2-vasopressin receptors [2]) | Kb (V1-vasopressin receptors)
1 | CCOc1ccc(C[C@H]2NC(=O)CC3(CCCCC3)SSC[C@@H](C(=O)N3CCC[C@H]3C(=O)N[C@@H](CCCNC(=N)N)C(=O)NCC(N)=O)NC(=O)[C@H](CC(N)=O)NC(=O)[C@](C)(C(C)C)NC(=O)[C@H](Cc3ccccc3)NC2=O)cc1 [C, [1-(β,β-cyclopentamethylene-β-mercaptopropionic acid)-2-(O-ethyl-D-tyrosine)-4-α-methylvaline-8-arginine]vasopressin] ([dY](Et)F[αMeV]NCPRG-NH2; linker N-5 via X1) | 31 nM | 11 nM | –
2 | CCOc1ccc(C[C@H]2NC(=O)CC3(CCCCC3)SSC[C@@H](C(=O)N3CCC[C@H]3C(=O)N[C@@H](CCCN=C(N)N)C(=O)NCC(N)=O)NC(=O)[C@H](CC(N)=O)NC(=O)[C@H](C(C)C)NC(=O)[C@H](Cc3ccccc3)NC2=O)cc1 [G, [1-(β,β-cyclopentamethylene-β-mercaptopropionic acid)-2-(O-ethyl-D-tyrosine)-4-valine-8-arginine]vasopressin, reference compound] ([dY](Et)FVNCPRG-NH2; linker N-5 via X1) | – | 6.7 nM | 1.4 nM
3 | COc1ccc(C[C@@H]2NC(=O)CC3(CCCCC3)SSC[C@@H](C(=O)N3CCC[C@H]3C(=O)N[C@@H](CCCNC(=N)N)C(=O)NCC(N)=O)NC(=O)[C@H](CC(N)=O)NC(=O)[C@](C)(C(C)C)NC(=O)[C@H](Cc3ccccc3)NC2=O)cc1 [D, [1-(β,β-cyclopentamethylene-β-mercaptopropionic acid)-2-(O-methyl L-tyrosine)-4-α-methylvaline-8-arginine]vasopressin] (Y(Me)F[αMeV]NCPRG-NH2; linker N-5 via X1) | 490 nM | 170 nM | 18 nM
4 | CCOc1ccc(C[C@H]2NC(=O)CC3(CCCCC3)SSC[C@@H](C(=O)N3CCC[C@H]3C(=O)N[C@@H](CCCNC(=N)N)C(N)=O)NC(=O)[C@H](CC(N)=O)NC(=O)C(C)(C)NC(=O)[C@H](Cc3ccccc3)NC2=O)cc1 [B, [1-(β,β-cyclopentamethylene-β-mercaptopropionic acid)-2-(O-ethyl-D-tyrosine)-4-α-aminoisobutyric acid-8-arginine-9-desglycine]vasopressin] ([dY](Et)F[Aib]NCPR-NH2; linker N-5 via X1) | 140 nM | 580 nM | –
5 | COc1ccc(C[C@@H]2NC(=O)CC3(CCCCC3)SSC[C@@H](C(=O)N3CCC[C@H]3C(=O)N[C@@H](CCCN=C(N)N)C(=O)NCC(N)=O)NC(=O)[C@H](CC(N)=O)NC(=O)[C@H](C(C)C)NC(=O)[C@H](Cc3ccccc3)NC2=O)cc1 [F, [1-(β,β-cyclopentamethylene-β-mercaptopropionic acid)-2-(O-methyl-L-tyrosine)-4-valine-8-arginine]vasopressin, reference compound] (Y(Me)FVNCPRG-NH2; linker N-5 via X1) | 88 nM | 35 nM | 12 nM
6 | CCOc1ccc(C[C@H]2NC(=O)CC3(CCCCC3)SSC[C@@H](C(=O)NC(C)(C)C(=O)N[C@@H](CCCNC(=N)N)C(N)=O)NC(=O)[C@H](CC(N)=O)NC(=O)[C@H](C(C)C)NC(=O)[C@H](Cc3ccccc3)NC2=O)cc1 [E, [1-(β,β-cyclopentamethylene-β-mercaptopropionic acid)-2-(O-ethyl-D-tyrosine)-4-valine-7-α-aminoisobutyric acid-8-arginine-9-desglycine]vasopressin] ([dY](Et)FVNC[Aib]R-NH2; linker N-5 via X1) | 16 nM | 15 nM | –
7 | CCOc1ccc(C[C@H]2NC(=O)CC3(CCCCC3)SSC[C@@H](C(=O)NC(C)(C)C(=O)N[C@@H](CCCNC(=N)N)C(=O)NCC(N)=O)NC(=O)[C@H](CC(N)=O)NC(=O)[C@H](C(C)C)NC(=O)[C@H](Cc3ccccc3)NC2=O)cc1 [A, [1-(β,β-cyclopentamethylene-β-mercaptopropionic acid)-2-(O-ethyl-D-tyrosine)-4-valine-7-α-aminoisobutyric acid-8-arginine]vasopressin] ([dY](Et)FVNC[Aib]RG-NH2; linker N-5 via X1) | 18 nM | 9.2 nM | –
